From US9302999B2, “Substituted triazoles as herbicides” (E. I. DU PONT DE NEMOURS AND COMPANY, priority 2012, dated 2016)
Where two headings read alike, the source gives them in different places.

How the values were obtained:
Format in all cases: in vivo
[1] = test system: crabgrass, large (large crabgrass, Digitaria sanguinalis); test: Test A pre-/postemergence: crabgrass, large; settings: for pest or weed control at 125 g/ha / pest or weed control at 500 g/ha: Digitaria sanguinalis, 240 h
In short: (§1)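 Each species received preemergence soil-directed spraying and, at the same time, postemergence treatment of seedlings 2–10 cm tall. Formulation: non-phytotoxic solvent mixture including surfactant. Response assessed visually about ten days on, relative to untreated controls, 0–100 scale.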

[2] = test system: johnsongrass (Sorghum halepense); test: Test C pre-/postemergence: johnsongrass
In short: (§2)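 Visual injury scored 0–100 (100 = complete control) against untreated controls after 13–15 greenhouse days. Surfactant-containing solvent formulations applied either to soil after sowing (loam/sand) or over 1- to 4-leaf plants, 2–18 cm tall.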

[3] = test system: sedge, umbrella (small-flower umbrella sedge Cyperus difformis); test: Test B flooded paddy: sedge, umbrella; settings: Flood, applied to paddy water at 2-leaf stage, visually evaluated after 13 to 15 days
In short: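 2-leaf plants; pots flooded 3 cm over soil; compound added to paddy water, depth kept constant. Greenhouse 13–15 d. Visual rating vs controls, 0–100 scale (100 = complete control); dash = no result.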

[4] = test system: velvetleaf (Abutilon theophrasti); test: Test C pre-/postemergence: velvetleaf
In short: as §2

[5] = test system: lambsquarters (Chenopodium album); test: Test C pre-/postemergence: lambsquarters
In short: as §2

[6] = test system: wheat (Triticum aestivum); test: Test A pre-/postemergence: wheat; settings: for plant injury at 125 g/ha / plant injury at 500 g/ha: Triticum aestivum, 240 h
In short: as §1

[7] = test system: foxtail, giant (giant foxtail, Setaria faberii); test: Test A pre-/postemergence: foxtail, giant; settings: for pest or weed control at 125 g/ha / pest or weed control at 500 g/ha: Setaria faberi, 240 h
In short: as §1

[8] = test system: corn (Zea mays); test: Test A pre-/postemergence: corn
In short: as §1

[9] = test system: ryegrass, Italian (Italian ryegrass, Lolium multiflorum); test: Test C pre-/postemergence: ryegrass, Italian
In short: as §2

[10] = Postemergence, 31 g ai/ha, scale 0 to 100 (0 no effect, 100 complete control)
[11] = Postemergence, 62 g ai/ha, scale 0 to 100 (0 no effect, 100 complete control)
[12] = Postemergence, 125 g ai/ha, scale 0 to 100, 0 no effect, 100 complete control
[13] = Postemergence, 250 g ai/ha, scale 0 to 100 (0 no effect, 100 complete control)
[14] = Preemergence, 31 g ai/ha, scale 0 (no effect) to 100 (complete control)
[15] = Preemergence, 62 g ai/ha, scale 0 to 100, 0 no effect, 100 complete control
[16] = Preemergence, 250 g ai/ha, scale 0 to 100, 0 no effect, 100 complete control
[17] = Preemergence, 125 g ai/ha, scale 0 to 100, 0 no effect, 100 complete control
[18] = Postemergence, 125 g ai/ha, 0 to 100 scale, 0 is no effect, 100 is complete control
[19] = Postemergence, 500 g ai/ha, visual rating on 0 to 100 scale (0 no effect, 100 complete control), approximately ten days
[20] = Preemergence, 125 g ai/ha, 0 to 100 scale where 0 is no effect and 100 is complete control
[21] = Preemergence, 500 g ai/ha, 0 to 100 scale (0 no effect, 100 complete control)
[22] = Preemergence, 31 g ai/ha, scale of 0 to 100, 0 is no effect, 100 is complete control
[23] = Preemergence, 62 g ai/ha, scale of 0 to 100, 0 is no effect, 100 is complete control
[24] = Postemergence, 500 g ai/ha, 0 to 100 scale, 0 is no effect, 100 is complete control

CCOc1nn(-c2ccc(F)cc2)nc1Cc1ccnc(C(F)(F)F)c1 [Compound 196, 4-[[5-ethoxy-2-(4-fluorophenyl)-2H-1,2,3-triazol-4-yl]methyl]-2-(trifluoromethyl)pyridine]
pest or weed control at 125 g/ha ([1]; post-emergence, Postemergence, 125 g ai/ha, 0 to 100 scale, 0 is no effect, 100 is complete control, read-out: Plant response rating, Crabgrass, Large): 90%
pest or weed control at 500 g/ha ([1]; post-emergence, Postemergence, 500 g ai/ha, 0 to 100 scale, 0 is no effect, 100 is complete control, read-out: Crabgrass, Large plant response rating): 90%
pest or weed control at 125 g/ha ([1]; pre-emergence, Preemergence, 125 g ai/ha, 0 to 100 scale where 0 is no effect and 100 is complete control, read-out: Plant response rating, Crabgrass, Large): 100%
pest or weed control at 500 g/ha ([1]; pre-emergence, Preemergence, 500 g ai/ha, 0 to 100 scale (0 no effect, 100 complete control), read-out: Plant response rating, Crabgrass, Large): 100%
Plant response rating, Johnsongrass [2, 10]: 80
Plant response rating, Johnsongrass [2, 11]: 90
Plant response rating, Johnsongrass [2, 12]: 90
Plant response rating, Johnsongrass [2, 13]: 95
Plant response rating, Johnsongrass [2, 14]: 98
Plant response rating, Johnsongrass [2, 15]: 100
Plant response rating, Johnsongrass [2, 16]: 100
Plant response rating, Sedge, Umbrella (0 to 100 scale, 0 is no effect, 100 is complete control) ([3]; 250 g ai/ha): 100
Plant response rating, Velvetleaf [4, 10]: 55
Plant response rating, Velvetleaf [4, 11]: 65
Plant response rating, Velvetleaf [4, 12]: 75
Plant response rating, Velvetleaf [4, 13]: 80
Plant response rating, Velvetleaf [4, 14]: 60
Plant response rating, Velvetleaf [4, 15]: 70
Plant response rating, Velvetleaf [4, 17]: 80
Plant response rating, Velvetleaf [4, 16]: 100
Plant response rating, Lambsquarters [5, 10]: 95
Plant response rating, Lambsquarters [5, 11]: 95
Plant response rating, Lambsquarters [5, 12]: 95
Plant response rating, Lambsquarters [5, 13]: 95
Plant response rating, Lambsquarters [5, 14]: 85
Plant response rating, Lambsquarters [5, 15]: 90
Plant response rating, Lambsquarters [5, 17]: 95
Plant response rating, Lambsquarters [5, 16]: 95
plant injury at 125 g/ha ([6]; post-emergence, Postemergence, 125 g ai/ha, 0 to 100 scale, 0 is no effect, 100 is complete control, read-out: Plant response rating, Wheat): 50%
plant injury at 500 g/ha ([6]; post-emergence, Postemergence, 500 g ai/ha, 0 to 100 scale, 0 is no effect, 100 is complete control, read-out: Wheat plant response rating): 70%
plant injury at 125 g/ha ([6]; pre-emergence, Preemergence, 125 g ai/ha, 0 to 100 scale where 0 is no effect and 100 is complete control, read-out: Plant response rating, Wheat): 50%
plant injury at 500 g/ha ([6]; pre-emergence, Preemergence, 500 g ai/ha, 0 to 100 scale (0 no effect, 100 complete control), read-out: Plant response rating, Wheat): 70%
pest or weed control at 125 g/ha ([7]; post-emergence, Postemergence, 125 g ai/ha, 0 to 100 scale, 0 is no effect, 100 is complete control, read-out: Plant response rating, Foxtail, Giant): 90%
pest or weed control at 500 g/ha ([7]; post-emergence, Postemergence, 500 g ai/ha, 0 to 100 scale, 0 is no effect, 100 is complete control, read-out: Foxtail, Giant plant response rating): 90%
pest or weed control at 125 g/ha ([7]; pre-emergence, Preemergence, 125 g ai/ha, 0 to 100 scale where 0 is no effect and 100 is complete control, read-out: Plant response rating, Foxtail, Giant): 100%
pest or weed control at 500 g/ha ([7]; pre-emergence, Preemergence, 500 g ai/ha, 0 to 100 scale (0 no effect, 100 complete control), read-out: Plant response rating, Foxtail, Giant): 100%
Corn plant response rating (crop injury, 0 = no effect, 100 = complete kill) at 125 g/ha ([8]; Zea mays, post-emergence, 240 h, Postemergence, 125 g ai/ha, 0 to 100 scale, 0 is no effect, 100 is complete control): 70%
plant injury at 500 g/ha ([8]; Zea mays, post-emergence, 240 h, Postemergence, 500 g ai/ha, 0 to 100 scale, 0 is no effect, 100 is complete control, read-out: Corn plant response rating): 80%
Corn plant response rating (crop injury, 0 = no effect, 100 = complete kill) at 125 g/ha ([8]; Zea mays, pre-emergence, 240 h, Preemergence, 125 g ai/ha, 0 to 100 scale where 0 is no effect and 100 is complete control): 30%
Corn plant response rating (crop injury, 0 = no effect, 100 = complete kill) at 500 g/ha ([8]; Zea mays, pre-emergence, 240 h, Preemergence, 500 g ai/ha, 0 to 100 scale (0 no effect, 100 complete control)): 50%
Plant response rating, Ryegrass, Italian [9, 10]: 35
Plant response rating, Ryegrass, Italian [9, 11]: 60
Plant response rating, Ryegrass, Italian [9, 12]: 85
Plant response rating, Ryegrass, Italian [9, 13]: 85
Plant response rating, Ryegrass, Italian [9, 14]: 80
Plant response rating, Ryegrass, Italian [9, 15]: 90
Plant response rating, Ryegrass, Italian [9, 17]: 90
Plant response rating, Ryegrass, Italian [9, 16]: 90

Cc1nn(-c2ccc(F)cc2F)nc1Oc1ccnc(C(F)(F)F)c1 [Compound 146]
Crabgrass, Large plant response rating [1, 18]: 80
Crabgrass, Large plant response rating [1, 19]: 90
Plant response rating, Crabgrass, Large [1, 20]: 100
Plant response rating, Crabgrass, Large [1, 21]: 100
Plant response rating, Johnsongrass [2, 22]: 5
Plant response rating, Johnsongrass [2, 23]: 75
Plant response rating, Johnsongrass [2, 17]: 98
Plant response rating, Johnsongrass [2, 16]: 100
Plant response rating, Sedge, Umbrella (0 to 100 scale, 0 is no effect, 100 is complete control) ([3]; 250 g ai/ha): 80
Plant response rating, Velvetleaf [4, 22]: 0
Plant response rating, Velvetleaf [4, 23]: 5
Plant response rating, Velvetleaf [4, 17]: 15
Plant response rating, Velvetleaf [4, 16]: 60
Plant response rating, Lambsquarters [5, 22]: 10
Plant response rating, Lambsquarters [5, 23]: 40
Plant response rating, Lambsquarters [5, 17]: 85
Plant response rating, Lambsquarters [5, 16]: 95
Plant response rating, Wheat [6, 18]: 10
Wheat plant response rating [6, 19]: 30
Plant response rating, Wheat [6, 20]: 0
Plant response rating, Wheat [6, 21]: 30
Foxtail, Giant plant response rating [7, 18]: 80
Foxtail, Giant plant response rating [7, 19]: 90
Plant response rating, Foxtail, Giant [7, 20]: 100
Plant response rating, Foxtail, Giant [7, 21]: 100
Corn plant response rating [8, 18]: 20
Corn plant response rating [8, 19]: 80
Plant response rating, Corn [8, 20]: 0
Plant response rating, Corn [8, 21]: 10
Plant response rating, Ryegrass, Italian [9, 22]: 0
Plant response rating, Ryegrass, Italian [9, 23]: 30
Plant response rating, Ryegrass, Italian [9, 17]: 55
Plant response rating, Ryegrass, Italian [9, 16]: 90

CCc1nn(-c2ccc(C(F)(F)F)c(F)c2)nc1Oc1ccnc(C(F)(F)F)c1 [Compound 183]
Plant response rating, Crabgrass, Large [1, 18]: 90
Crabgrass, Large plant response rating [1, 24]: 90
Plant response rating, Crabgrass, Large [1, 20]: 100
Plant response rating, Crabgrass, Large [1, 21]: 100
Plant response rating, Johnsongrass [2, 10]: 20
Plant response rating, Johnsongrass [2, 11]: 30
Plant response rating, Johnsongrass [2, 12]: 50
Plant response rating, Johnsongrass [2, 13]: 75
Plant response rating, Johnsongrass [2, 14]: 10
Plant response rating, Johnsongrass [2, 23]: 35
Plant response rating, Johnsongrass [2, 17]: 80
Plant response rating, Johnsongrass [2, 16]: 95
Plant response rating, Sedge, Umbrella (0 to 100 scale, 0 is no effect, 100 is complete control) ([3]; 125 g ai/ha): 95
Plant response rating, Velvetleaf [4, 10]: 75
Plant response rating, Velvetleaf [4, 12]: 75
Plant response rating, Velvetleaf [4, 13]: 75
Plant response rating, Velvetleaf [4, 14]: 45
Plant response rating, Velvetleaf [4, 23]: 55
Plant response rating, Velvetleaf [4, 17]: 100
Plant response rating, Velvetleaf [4, 16]: 100
Plant response rating, Lambsquarters [5, 10]: 85
Plant response rating, Lambsquarters [5, 11]: 95
Plant response rating, Lambsquarters [5, 12]: 95
Plant response rating, Lambsquarters [5, 13]: 98
Plant response rating, Lambsquarters [5, 14]: 80
Plant response rating, Lambsquarters [5, 23]: 100
Plant response rating, Lambsquarters [5, 17]: 100
Plant response rating, Lambsquarters [5, 16]: 100
Plant response rating, Wheat [6, 18]: 30
Wheat plant response rating [6, 24]: 40
Plant response rating, Wheat [6, 20]: 30
Plant response rating, Wheat [6, 21]: 60
Plant response rating, Foxtail, Giant [7, 18]: 90
Foxtail, Giant plant response rating [7, 24]: 90
Plant response rating, Foxtail, Giant [7, 20]: 100
Plant response rating, Foxtail, Giant [7, 21]: 100
Plant response rating, Corn [8, 18]: 20
Corn plant response rating [8, 24]: 50
Plant response rating, Corn [8, 20]: 20
Plant response rating, Corn [8, 21]: 30
Plant response rating, Ryegrass, Italian [9, 10]: 10
Plant response rating, Ryegrass, Italian [9, 11]: 15
Plant response rating, Ryegrass, Italian [9, 12]: 20
Plant response rating, Ryegrass, Italian [9, 13]: 40
Plant response rating, Ryegrass, Italian [9, 14]: 65
Plant response rating, Ryegrass, Italian [9, 23]: 80
Plant response rating, Ryegrass, Italian [9, 17]: 90
Plant response rating, Ryegrass, Italian [9, 16]: 95
